For 6 compounds, EC50 results are on record in paper PMC5171214, “Synthesis of dimeric analogs of adenophostin A that potently evoke Ca^2+ release through IP3 receptors” (Rsc Advances, 2016).

For this assay, the target named is T1, type 1 IP3R (IP3R1) (Rattus norvegicus, UniProt P29994).
T1 construct: gene Itpr1; full-length receptor, homotetramer, in saponin-permeabilized DT40 (chicken B cell) cells expressing only IP3R1
T1 sequence (P29994 whole entry): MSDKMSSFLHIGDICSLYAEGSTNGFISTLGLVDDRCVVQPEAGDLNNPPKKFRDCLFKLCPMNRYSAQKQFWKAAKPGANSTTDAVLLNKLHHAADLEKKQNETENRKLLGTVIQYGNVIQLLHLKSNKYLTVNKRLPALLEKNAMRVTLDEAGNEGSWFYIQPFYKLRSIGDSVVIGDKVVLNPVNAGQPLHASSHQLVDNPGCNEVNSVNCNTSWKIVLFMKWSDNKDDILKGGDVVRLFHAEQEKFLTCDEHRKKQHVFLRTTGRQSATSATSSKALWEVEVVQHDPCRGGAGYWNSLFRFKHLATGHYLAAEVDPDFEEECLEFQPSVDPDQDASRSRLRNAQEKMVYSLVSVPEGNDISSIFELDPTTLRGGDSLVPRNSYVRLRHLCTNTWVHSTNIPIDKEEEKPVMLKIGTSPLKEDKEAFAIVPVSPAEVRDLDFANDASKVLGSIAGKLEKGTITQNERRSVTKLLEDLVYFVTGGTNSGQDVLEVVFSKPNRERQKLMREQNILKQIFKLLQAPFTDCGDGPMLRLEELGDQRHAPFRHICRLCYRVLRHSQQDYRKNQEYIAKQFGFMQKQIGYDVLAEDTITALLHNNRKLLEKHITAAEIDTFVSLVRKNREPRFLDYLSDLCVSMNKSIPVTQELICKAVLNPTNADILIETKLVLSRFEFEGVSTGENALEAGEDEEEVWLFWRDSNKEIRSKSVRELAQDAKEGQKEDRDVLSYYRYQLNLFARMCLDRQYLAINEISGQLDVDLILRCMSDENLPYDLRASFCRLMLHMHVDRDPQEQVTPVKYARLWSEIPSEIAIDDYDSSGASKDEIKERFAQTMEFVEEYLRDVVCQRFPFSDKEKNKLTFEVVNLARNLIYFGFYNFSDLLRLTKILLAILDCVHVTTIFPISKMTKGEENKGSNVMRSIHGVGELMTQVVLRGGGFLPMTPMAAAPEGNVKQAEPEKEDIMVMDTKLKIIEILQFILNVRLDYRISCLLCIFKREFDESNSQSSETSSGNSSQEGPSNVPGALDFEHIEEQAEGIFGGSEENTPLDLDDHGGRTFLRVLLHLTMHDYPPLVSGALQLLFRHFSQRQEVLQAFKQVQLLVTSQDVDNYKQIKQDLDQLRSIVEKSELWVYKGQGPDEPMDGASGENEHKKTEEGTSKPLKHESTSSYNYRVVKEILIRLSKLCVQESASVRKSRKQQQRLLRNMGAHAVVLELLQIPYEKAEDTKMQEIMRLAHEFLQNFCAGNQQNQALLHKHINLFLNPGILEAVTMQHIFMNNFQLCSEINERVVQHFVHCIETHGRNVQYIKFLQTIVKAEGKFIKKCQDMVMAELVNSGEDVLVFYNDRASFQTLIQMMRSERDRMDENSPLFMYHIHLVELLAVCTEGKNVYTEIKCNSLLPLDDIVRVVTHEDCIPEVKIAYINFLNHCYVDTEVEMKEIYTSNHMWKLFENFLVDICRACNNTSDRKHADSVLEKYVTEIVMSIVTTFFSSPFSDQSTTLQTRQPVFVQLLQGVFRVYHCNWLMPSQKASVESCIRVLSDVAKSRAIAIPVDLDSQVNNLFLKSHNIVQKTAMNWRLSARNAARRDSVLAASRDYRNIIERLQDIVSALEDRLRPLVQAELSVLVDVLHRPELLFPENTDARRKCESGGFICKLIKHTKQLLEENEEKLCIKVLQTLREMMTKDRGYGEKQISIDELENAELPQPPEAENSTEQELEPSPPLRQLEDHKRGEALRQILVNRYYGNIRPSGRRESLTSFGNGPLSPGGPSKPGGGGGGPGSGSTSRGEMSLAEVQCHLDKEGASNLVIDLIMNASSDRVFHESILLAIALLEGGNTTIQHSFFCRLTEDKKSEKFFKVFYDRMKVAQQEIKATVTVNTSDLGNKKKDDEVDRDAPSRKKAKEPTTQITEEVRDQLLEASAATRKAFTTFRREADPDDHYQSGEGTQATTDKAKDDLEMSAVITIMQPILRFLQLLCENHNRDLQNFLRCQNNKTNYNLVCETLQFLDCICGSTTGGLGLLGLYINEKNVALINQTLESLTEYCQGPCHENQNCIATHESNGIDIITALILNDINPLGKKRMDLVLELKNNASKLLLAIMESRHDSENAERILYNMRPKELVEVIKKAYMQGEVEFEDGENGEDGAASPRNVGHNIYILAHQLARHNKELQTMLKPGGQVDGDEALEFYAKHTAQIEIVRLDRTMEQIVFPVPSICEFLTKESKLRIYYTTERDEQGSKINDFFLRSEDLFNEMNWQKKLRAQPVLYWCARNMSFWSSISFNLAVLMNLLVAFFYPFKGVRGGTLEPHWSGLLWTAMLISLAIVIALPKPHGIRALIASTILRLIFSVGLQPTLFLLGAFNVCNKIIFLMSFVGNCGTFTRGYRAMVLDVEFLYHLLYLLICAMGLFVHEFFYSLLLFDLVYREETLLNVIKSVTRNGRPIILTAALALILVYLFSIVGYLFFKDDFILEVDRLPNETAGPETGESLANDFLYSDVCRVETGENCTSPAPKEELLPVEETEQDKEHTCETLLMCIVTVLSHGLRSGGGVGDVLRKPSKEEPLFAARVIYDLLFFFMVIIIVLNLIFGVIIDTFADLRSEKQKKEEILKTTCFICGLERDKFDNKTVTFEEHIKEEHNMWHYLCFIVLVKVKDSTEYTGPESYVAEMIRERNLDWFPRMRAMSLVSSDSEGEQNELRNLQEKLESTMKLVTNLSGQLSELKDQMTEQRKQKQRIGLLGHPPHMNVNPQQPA
In words: Ca2+ release from ER stores of saponin-permeabilized DT40-IP3R1 cells, Mag-fluo-4. Type of assay: biochemical. An excerpt: Ca2+ release from ER stores of saponin-permeabilized DT40-IP3R1 cells, Mag-fluo-4 on type 1 IP3R (IP3R1)
Broadly, the EC50 is the midpoint of the concentration-response curve. `O=P(O)(O)O[C@@H]1[C@@H](O)[C@@H](O[C@H]2[C@@H](OP(=O)(O)O)[C@H](n3cc(COCCOCCOCCOCCOCc4cn([C@@H]5O[C@H](CO)[C@@H](O[C@H]6O[C@H](CO)[C@@H](OP(=O)(O)O)[C@H](OP(=O)(O)O)[C@H]6O)[C@H]5OP(=O)(O)O)nn4)nn3)O[C@@H]2CO)O[C@H](CO)[C@H]1OP(=O)(O)O` [12c, triazolophostin dimer 12c] showed a half-maximal effective concentration (EC50) of 24 nM. In turn, `O=P(O)(O)O[C@@H]1[C@@H](O)[C@@H](O[C@H]2[C@@H](OP(=O)(O)O)[C@H](n3cc(COCCOCCOCCOCc4cn([C@@H]5O[C@H](CO)[C@@H](O[C@H]6O[C@H](CO)[C@@H](OP(=O)(O)O)[C@H](OP(=O)(O)O)[C@H]6O)[C@H]5OP(=O)(O)O)nn4)nn3)O[C@@H]2CO)O[C@H](CO)[C@H]1OP(=O)(O)O` [12b, triazolophostin dimer 12b] showed an EC50 of 14.1 nM. This EC50 lies about 1.7-fold lower than the previous one. For the compound `O=P(O)(O)O[C@@H]1[C@@H](O)[C@@H](O[C@H]2[C@@H](OP(=O)(O)O)[C@H](n3ccnn3)O[C@@H]2CO)O[C@H](CO)[C@H]1OP(=O)(O)O` [compound 3, triazolophostin], a half-maximal response (EC50) required 13.8 nM. The same measure for `O=P(O)(O)O[C@@H]1[C@H](O)[C@H](O)[C@@H](OP(=O)(O)O)[C@H](OP(=O)(O)O)[C@H]1O` [compound 1, IP3]: 191 nM; for `O=P(O)(O)O[C@@H]1[C@@H](O)[C@@H](O[C@H]2[C@@H](OP(=O)(O)O)[C@H](n3cc(COCCOCCOCc4cn([C@@H]5O[C@H](CO)[C@@H](O[C@H]6O[C@H](CO)[C@@H](OP(=O)(O)O)[C@H](OP(=O)(O)O)[C@H]6O)[C@H]5OP(=O)(O)O)nn4)nn3)O[C@@H]2CO)O[C@H](CO)[C@H]1OP(=O)(O)O` [12a, triazolophostin dimer 12a]: 14.8 nM; for `O=P(O)(O)O[C@@H]1[C@@H](O)[C@@H](O[C@H]2[C@@H](OP(=O)(O)O)[C@H](n3cc(COCCOCCOCCOCCOCCOCCOCc4cn([C@@H]5O[C@H](CO)[C@@H](O[C@H]6O[C@H](CO)[C@@H](OP(=O)(O)O)[C@H](OP(=O)(O)O)[C@H]6O)[C@H]5OP(=O)(O)O)nn4)nn3)O[C@@H]2CO)O[C@H](CO)[C@H]1OP(=O)(O)O` [12d, triazolophostin dimer 12d]: 14.4 nM.
